# Structures can show the parent of a compound that is named as a salt.
# Legend:
# SMN2 mRNA = assay: Splicing RT-qPCR panel, SMN2 canonical junction (CJ) mRNA; format: cell-based, human; conditions: Homo sapiens, read-out: SMN2 CJ (decrease in CJ mRNA levels, IC50)
# Procedure, shortened: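 A673 cells (DMEM, 10% FBS) or K562 cells (IMDM, 10% FBS) treated 24 h at 37 °C with an 11-point 3-fold dilution, top 10 uM, DMSO ≤0.25%. Canonical-junction mRNA quantified in lysates by RT-qPCR, normalised to GAPDH, GUSB or PPIA and to DMSO (2^−ΔΔCt), then converted to % response.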
# HiBiT-tagged MYB protein = assay: HiBiT protein abundance assay, MYB (K562 HiBiT knock-in); format: cell-based, human; conditions: HiBiT knock-in cells, 24 hours
# Experimental: (§1) Compounds described herein were used to screen for effects on quantitative protein abundance using a HiBit assay system (Promega). Quantitative protein abundance was determined by measuring the protein levels of HiBit-tagged protein targets expressed in cell culture via luminescence using the Nano-Glo HiBiT Lytic Detection System, which uses a split complementation assay format to reconstitute NanoBiT enzyme to generate a luminescent signal. A protein abundance assay was developed such that endogenous protein targets could be modified with the HiBiT peptide tag and their abundance could be assessed after compound treatment. Briefly, K562 cell lines containing a HiBiT-modification were treated with various compounds described herein (e.g., compounds of Formulas (I), or (II)). After treatment for 24 hours, the protein abundance of a specific target was determined by measuring luminescence.
# (§2) • Promega Nano-Glo HiBiT Lytic Detection System (cat #N3030) • Corning 384-well TC-treated microplates (cat #3570)
# (§3) Cells were maintained in IMDM with 10% FBS. Before the assay, cells were diluted with […] growth media (IMDM+1% FBS media) and were seeded in a 384-well plate at a density of 10000 cells/well (for each cell line listed in Table 6). Each compound was prepared as a 10-point 3-old serial dilution in DMSO with the top dose at a final concentration of 10 μM in the well. Unmodified K562 cells were added at the previously specified density with DMSO to serve as an assay baseline and positive control (PC) and DMSO only with the respective modified cell lines was added to the negative control (NC) columns. Final DMSO concentration was kept at or below 0.25%. Treated cell plates were placed in an incubator at 37° C. with 5% CO2 for 24 hours. After 24 hours, 25 μL of Complete HiBit Lytic reagent was added to each well at room temperature (e.g. one plate requiring 10 ml Lytic Buffer, 100 μL LgBiT Protein, 200 μL Lytic Substrate), shaken for 5 minutes at 600 RPM, then left to sit for 10 minutes for signal to stabilize before reading on a Spark Cyto plate reader (Tecan) with a 500 ms measurement time.
# (§4) To determine compound effects on protein abundance of each target in Table 6, the percent response for each respective cell line was calculated at each compound concentration as follows:
# (§5) For the normalized response at each concentration, a four-parameter logistical regression was fit to the data and the response was interpolated at the 50% value to determine a concentration for protein abundance at 50% (IC50) the untreated control.
# HiBiT-tagged HTT protein = assay: HiBiT protein abundance assay, HTT (K562 HiBiT knock-in); format: cell-based, human; conditions: HiBiT knock-in cells, 24 hours
# Experimental: as §1, §2, §3, §4, §5
# K562 cells = assay: Cell viability, Cell Titer Glo 2.0 assay, K562; conditions: 72 hours
SMILES,IC50 (SMN2 mRNA) [nM],IC50 (HiBiT-tagged MYB protein) [nM],IC50 (HiBiT-tagged HTT protein) [nM],"Effect on Cell Viability, K562 (K562 cells)"
"Cc1cn2nc(-c3cc(Cl)c4cc(N5C[C@@H](C)N[C@@H](C)C5)cnc4n3)cc(C)c2n1 [Compound 335, 4-chloro-2-{2,8-dimethylimidazo[1,2-b]478pyridazine-6-yl}-6-[(3R,5S)-3,5-dimethylpiperazin-1-yl]-1,8-naphthyridine]",< 100,100 to 1000,100 to 1000,B (100-1000 nM)
C[C@H]1CN(c2cnc3nc(-c4cc(F)c5nn(C)cc5c4)cc(Cl)c3c2)C[C@@H](C2CC2)N1 [Compound 288],< 100,100 to 1000,1000 to 10000,B (100-1000 nM)
"Cc1cn2cc(-c3cc(Cl)c4cc(N5CCNCC5)cnc4n3)cc(F)c2n1 [Compound 153, 4-chloro-2-{8-fluoro-2-methylimidazo[1,2-a]pyridin-6-yl}-6-(piperazin-1-yl)-1,8-naphthyridine]",< 100,100 to 1000,100 to 1000,B (100-1000 nM)
CN(C)C1CCN(c2cnc3nc(-c4cc5cn(C)nc5cc4O)ccc3c2)CC1 [Compound 316],< 100,100 to 1000,1000 to 10000,B (100-1000 nM)
Cc1cn2nc(-c3cc(Cl)c4cc(N5CCC(N(C)C)CC5)cnc4n3)cc(C)c2n1 [Compound 348],< 100,< 100,100 to 1000,B (100-1000 nM)
"CNC1CCN(c2cnc3nc(-c4cc5cn(C)nc5c(C)c4O)cc(Cl)c3c2)C1 (centres unmarked) [Compound 142, 5-{4-chloro-6-[3-(methylamino)351pyrrolidine-1-yl]-1,8-naphthyridin-2-yl}-2,7-dimethylindazol-6-ol]",< 100,< 100,< 100,A (<100 nM)
Cc1c(O)c(-c2cc(Cl)c3cc(N(C)[C@H]4CCNC4)cnc3n2)cc2cn(C)nc12 [Compound 294],< 100,100 to 1000,100 to 1000,B (100-1000 nM)
"CCNC1CCN(c2cnc3nc(-c4cc5cn(C)nc5c(C)c4O)ccc3c2)C1 (centres unmarked) [Compound 122, 5-{6-[3-(ethylamino)pyrrolidin-1-yl]-1,8-naphthyridin-2-yl}-2,7-dimethylindazol-6-ol]",< 100,< 100,< 100,A (<100 nM)
CN[C@H]1CCN(c2cnc3nc(-c4cc5cn(C)nc5c(C)c4O)ncc3c2)C1 [Compound 120],< 100,< 100,100 to 1000,A (<100 nM)
"Cc1c(O)c(-c2ccc3cc(N4CCC(NCC5CC5)C4)cnc3n2)cc2cn(C)nc12 (stereo in doubt) [Compound 119, 5-{6-[(3R)-3-[(cyclopropylmethyl)amino]pyrrolidin-1-yl]-1,8-naphthyridin-2-yl}-2,7-dimethylindazol-6-ol]",< 100,< 100,< 100,A (<100 nM)
"Cc1c(O)c(-c2cc(Cl)c3cc(NC4CCNC4)cnc3n2)cc2cn(C)nc12 (centres unmarked) [Compound 146, 5-[4-chloro-6-(359pyrrolidine-3-ylamino)-1,8-naphthyridin-2-yl]-2,7-dimethylindazol-6-ol]",< 100,< 100,100 to 1000,B (100-1000 nM)
"CCN[C@@H]1CCN(c2cnc3nc(-c4cc5cn(C)nc5cc4O)ccc3c2)C1 [Compound 310, 5-{6-[(3R)-3-(ethylamino)468pyrrolidine-1-yl]-1,8-naphthyridin-2-yl}-2-methylindazol-6-ol hydrochloride]",< 100,< 100,100 to 1000,B (100-1000 nM)
CN[C@@H]1CCN(c2cnc3nc(-c4cc5cn(C)nc5c(C)c4O)ccc3c2)C1 [Compound 112],< 100,< 100,100 to 1000,B (100-1000 nM)
"CCNC1CCN(c2cnc3nc(-c4cc5cn(C)nc5c(F)c4O)ccc3c2)C1 (centres unmarked) [Compound 106, 5-{6-[3-(ethylamino)pyrrolidin-1-yl]-1,8-naphthyridin-2-yl}-7-fluoro-2-methylindazol-6-ol]",< 100,< 100,< 100,A (<100 nM)
CN[C@H]1CCN(c2cnc3nc(-c4cc(C)c5nc(C)cn5n4)cc(Cl)c3c2)C1 [Compound 340],< 100,< 100,< 100,B (100-1000 nM)
"Cc1c(O)c(-c2ccc3cc(N4CCNCC4)cnc3n2)cc2cn(C)nc12 [Compound 137, 2,7-dimethyl-5-[6-(piperazin-1-yl)-1,8-naphthyridin-2-yl]indazol-6-ol]",< 100,< 100,100 to 1000,B (100-1000 nM)
Cc1cn2cc(-c3ccc4cc(N5C[C@@H](C)N[C@@H](C)C5)cnc4n3)cc(F)c2n1 [Compound 350],100 to 1000,100 to 1000,1000 to 10000,C (1000-9999 nM)
CN[C@H]1CCN(c2cnc3nc(-c4cc5cn(C)nc5c(C)c4O)cc(Cl)c3c2)C1.Cl [Compound 287],< 100,< 100,< 100,A (<100 nM)
CN(c1cnc2nc(-c3cc4cn(C)nc4c(F)c3O)cc(Cl)c2c1)[C@H]1CCNC1 [Compound 275],< 100,< 100,100 to 1000,A (<100 nM)
"CCN[C@H]1CCN(c2cnc3nc(-c4cc5cn(C)nc5cc4O)ccc3c2)C1 [Compound 311, 5-{6-[(3S)-3-(ethylamino)pyrrolidin-1-yl]-1,8-naphthyridin-2-yl}-2-methylindazol-6-ol hydrochloride]",< 100,100 to 1000,100 to 1000,B (100-1000 nM)
"Cn1cc2cc(-c3ccc4cc(N5CC[C@@H](NCC6CC6)C5)cnc4n3)c(O)c(F)c2n1 [Compound 135, 5-{6-[(3R)-3-[(cyclopropylmethyl)amino]330pyrrolidine-1-yl]-1,8-naphthyridin-2-yl}-7-fluoro-2-methylindazol-6-ol]",< 100,< 100,< 100,A (<100 nM)
"Cc1cn2nc(-c3cnc4nc(C5CCNCC5)ccc4c3)cc(C)c2n1 [Compound 115, 6-(2,8-dimethylimidazo[1,2-b]pyridazin-6-yl)-2-(piperidin-4-yl)-1,8-naphthyridine]",100 to 1000,1000 to 10000,1000 to 10000,C (1000-9999 nM)
C[C@H]1CN(c2cnc3nc(-c4cc(F)c5nn(C)cc5c4)cc(Cl)c3c2)CCN1 [Compound 296],< 100,< 100,100 to 1000,A (<100 nM)
C[C@@H]1CN(c2cnc3nc(-c4cc5cn(C)nc5c(F)c4O)cc(Cl)c3c2)C[C@H](C)N1 [Compound 279],< 100,< 100,100 to 1000,A (<100 nM)
Cn1cc2cc(-c3ccc4cc(N5CC[C@@H](NCC6CC6)C5)cnc4n3)c(O)cc2n1 [Compound 313],< 100,100 to 1000,100 to 1000,B (100-1000 nM)
"Cc1c(O)c(-c2ccc3c(C(F)(F)F)c(N4CCNCC4)cnc3n2)cc2cn(C)nc12 [Compound 302, 2,7-dimethyl-5-[6-(piperazin-1-yl)-5-(trifluoromethyl)-1,8-naphthyridin-2-yl]indazol-6-ol]",100 to 1000,100 to 1000,1000 to 10000,B (100-1000 nM)

# Source: patent publication US20250326748A1, “COMPOUNDS AND METHODS FOR MODULATING SPLICING” (REMIX THERAPEUTICS INC., priority 2022, published 2025)
